Results as given in US11413329B2, “Cancer cell trap” (BOARD OF REGENTS, THE UNIVERSITY OF TEXAS SYSTEM, priority 2012, dated 2022).

What was measured:
PC3 cells = experiment: Cancer cell killing at implant sites of EPO+doxorubicin-loaded particles; type: in vivo; settings: EPO+doxorubicin-loaded vs EPO-loaded particles, 1, 2, 4, and 7 days
Procedure: (§1) The fabrication of temperature sensitive hydrogel nanoparticles is described in the recent publication (Cai T, Hu P, Sun M, Zhou J, Tsai Y-T, Baker D W, Tang L. Novel thermogelling dispersions of polymer nanoparticles for controlled protein release. Nanomedicine 8 (8): 1301-8, 2012). The nanoparticles were loaded with EPO (600 international units/1 ml) in the presence or absence of doxorubicine (300 μg/m1) and paclitaxel (30 mg/ml). For that, EPO (600 international units), doxorubicine (300 μg) or paclitaxel (30 mg) was mixed with 50 μg of hydrogel nanoparticles at room temperature. After implantation, the average in vivo release rates for doxorubicin and paclitaxel were measured at 10 μg/day and 1 mg/day, respectively.
(§2) Further studies were carried out to determine whether the implantation of chemotherapy drug-loaded cancer cell traps can kill cancer cells at the implant sites. […] To quantify cell recruitment, tissue section images were taken using a Leica fluorescence microscope (Leica Microsystems Wetzlar GmbH, Wetzlar, Germany) equipped with a QImaging Retiga-EXi CCD camera (QImaging, Surrey, BC, Canada). The tissue section images at a magnification of 400× (viewing area 0.24 mm^2) were then used to quantify the cell numbers per view field by cell counter plugin of ImageJ processing program.

[1] = In vivo release rate of chemotherapy drugs from hydrogel nanoparticle traps; settings: from EPO-loaded hydrogel nanoparticles
Procedure: as §1

melanoma cells = experiment: Cancer cell killing at implant sites of EPO+paclitaxel-loaded particles; type: in vivo, C57 mice; settings: EPO+paclitaxel-loaded vs EPO-loaded particles, 1, 2, 4, and 7 days
Procedure: as §1, §2

Row | average in vivo release rate ([1]; 300 μg/ml) [µg/day] | average in vivo release rate ([1]; 30 mg/ml) [µg/day] | Compound | numbers of recruited PC3 cells at implant (PC3 cells) | numbers of recruited melanoma cells at implant (melanoma cells)
1 | 10 | – | COc1cccc2c1C(=O)c1c(O)c3c(c(O)c1C2=O)C[C@@](O)(C(=O)CO)C[C@@H]3O[C@H]1C[C@H](N)[C@H](O)[C@H](C)O1 [doxorubicin] | substantially reduced | –
2 | – | 1000 | CC(=O)O[C@H]1C(=O)[C@@]2(C)[C@H]([C@H](OC(=O)c3ccccc3)[C@]3(O)C[C@H](OC(=O)[C@H](O)[C@@H](NC(=O)c4ccccc4)c4ccccc4)C(C)=C1C3(C)C)[C@]1(OC(C)=O)CO[C@@H]1C[C@@H]2O [paclitaxel] | – | substantially reduced
